Source: ChEMBL document CHEMBL1201862, “PubChem BioAssay data set” (2004)
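Grown in 96-well plates, cells were treated for 48 hours with each compound at five concentrations. Insufficient inhibition: endpoint recorded as highest concentration tested. GI50 is the concentration that inhibits growth by half.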 The source made the active and inactive calls. Rule as the data show it: active = GI50 up to about 1.1 µM and inactive = higher.

Assays:
Assay in all cases: NCI anticancer screen, dose series, 48 h
LOX IMVI = system: LOX IMVI
SK-OV-3 = system: SK-OV-3
UO-31 = system: UO-31
OVCAR-3 = system: OVCAR-3
MOLT-4 = system: MOLT-4
K562 = system: K562
HL-60 = system: HL-60
RXF 393 = system: RXF 393
M14 = system: M14
HCC 2998 = system: HCC 2998
OVCAR-4 = system: OVCAR-4
NCI-H226 = system: NCI-H226
COLO 205 = system: COLO 205

Row | SMILES | GI50 (LOX IMVI) | GI50 (SK-OV-3) | GI50 (UO-31) | GI50 (OVCAR-3) | GI50 (MOLT-4) | GI50 (K562) | GI50 (HL-60) | GI50 (RXF 393) | GI50 (M14) | GI50 (HCC 2998) | GI50 (OVCAR-4) | GI50 (NCI-H226) | GI50 (COLO 205)
1 | CCCCCCCCCCCCCCCc1nnc(SCC(=O)O)[nH]1 | 33.4 µM (inactive) | 45.4 µM (inactive) | 49.9 µM (inactive) | > 100 µM (inactive) | 11.7 µM (inactive) | 16.4 µM (inactive) | 34.8 µM (inactive) | > 100 µM (inactive) | 19.3 µM (inactive) | 43.9 µM (inactive) | 45.7 µM (inactive) | – | –
2 | COC(=O)Cc1c([C@@]2(C)CCCC(C)(C)C2)ccc2c1C(=O)OC2 | 11.2 µM (inactive) | 14 µM (inactive) | 3.58 µM (inactive) | 5.25 µM (inactive) | 3.92 µM (inactive) | 4.02 µM (inactive) | 3.42 µM (inactive) | 10.4 µM (inactive) | 10.5 µM (inactive) | – | – | 11.2 µM (inactive) | 6.7 µM (inactive)
3 | COc1ccc(C[C@]23CCC(=O)N2CCc2cc(OC)c(O)cc23)cc1O | > 100 µM (inactive) | – | > 100 µM (inactive) | > 100 µM (inactive) | > 100 µM (inactive) | > 100 µM (inactive) | > 100 µM (inactive) | > 100 µM (inactive) | > 100 µM (inactive) | > 100 µM (inactive) | > 100 µM (inactive) | > 100 µM (inactive) | > 100 µM (inactive)
4 | CCCCc1c2c(nc3c1CC/C(=C\c1ccccc1)C3=O)CCCC2 | 1.76 µM (inactive) | 10.2 µM (inactive) | 6.05 µM (inactive) | 3.25 µM (inactive) | 3.33 µM (inactive) | 4.07 µM (inactive) | 2.79 µM (inactive) | 2.6 µM (inactive) | 4.91 µM (inactive) | 3.52 µM (inactive) | – | > 10 µM (inactive) | 7.48 µM (inactive)
5 | COc1cc2c(cc1O)C=NCC2 | – | > 100 µM (inactive) | > 100 µM (inactive) | 78.5 µM (inactive) | 60.5 µM (inactive) | > 100 µM (inactive) | > 100 µM (inactive) | – | > 100 µM (inactive) | – | > 100 µM (inactive) | > 100 µM (inactive) | 65.8 µM (inactive)
6 | CCSC(SCC)=C1C(=O)N(c2ccccc2)N=C1C | 12.4 µM (inactive) | 17.9 µM (inactive) | 15.6 µM (inactive) | 4.67 µM (inactive) | 6.98 µM (inactive) | 5.71 µM (inactive) | 2.33 µM (inactive) | 1.95 µM (inactive) | 13.6 µM (inactive) | 14.5 µM (inactive) | – | 15.7 µM (inactive) | 2.27 µM (inactive)
7 | COc1cccc(NC(=O)CSc2nnc(-c3ccc(NC(C)=O)cc3)o2)c1 | > 100 µM (inactive) | > 100 µM (inactive) | 80.4 µM (inactive) | > 100 µM (inactive) | > 100 µM (inactive) | > 100 µM (inactive) | > 100 µM (inactive) | > 100 µM (inactive) | > 100 µM (inactive) | – | > 100 µM (inactive) | > 100 µM (inactive) | > 100 µM (inactive)
8 | N#C/C(=C(/S)Nc1ccccc1)c1nc2ccccc2[nH]1 | > 10 µM (inactive) | 0.634 µM (active) | > 10 µM (inactive) | > 10 µM (inactive) | > 10 µM (inactive) | > 10 µM (inactive) | > 10 µM (inactive) | – | > 10 µM (inactive) | > 10 µM (inactive) | > 10 µM (inactive) | > 10 µM (inactive) | > 10 µM (inactive)
9 | Cc1cc(C=O)c2c(=O)c3c(O)ccc(/C=C/C(C)C)c3oc2c1 | – | – | > 100 µM (inactive) | 43.2 µM (inactive) | 28.9 µM (inactive) | 39.8 µM (inactive) | 28.3 µM (inactive) | – | 42.1 µM (inactive) | > 100 µM (inactive) | 31.4 µM (inactive) | > 100 µM (inactive) | > 100 µM (inactive)
10 | CC(=O)c1ccc2c(ccc(=O)n2C)c1 | > 100 µM (inactive) | > 100 µM (inactive) | – | > 100 µM (inactive) | > 100 µM (inactive) | > 100 µM (inactive) | > 100 µM (inactive) | – | > 100 µM (inactive) | > 100 µM (inactive) | > 100 µM (inactive) | > 100 µM (inactive) | > 100 µM (inactive)
11 | NC1=NN(c2ccccc2)C(=O)C1/C(=N\NC(=O)c1cc2ccccc2cc1O)C(=O)Nc1cccc(C(F)(F)F)c1 (configuration not stated) | 25.9 µM (inactive) | – | 32.8 µM (inactive) | 25.7 µM (inactive) | 16.3 µM (inactive) | – | 6.65 µM (inactive) | 55.1 µM (inactive) | 28.7 µM (inactive) | 46.2 µM (inactive) | 42.5 µM (inactive) | – | 35.7 µM (inactive)
12 | CCN(c1ccccc1)[C@H]1C(=O)N(c2ccc([N+](=O)[O-])cc2)[C@H]1c1ccc(OC)cc1 | – | 56.8 µM (inactive) | > 100 µM (inactive) | > 100 µM (inactive) | > 100 µM (inactive) | 41.6 µM (inactive) | 75.3 µM (inactive) | 37.6 µM (inactive) | – | > 100 µM (inactive) | – | > 100 µM (inactive) | 38 µM (inactive)
13 | CC(C)C(=O)/C=C/c1ccc(Cl)cc1 | 8.83 µM (inactive) | 40.5 µM (inactive) | 12.2 µM (inactive) | 14.4 µM (inactive) | 12.2 µM (inactive) | 3.48 µM (inactive) | 8.22 µM (inactive) | 17.6 µM (inactive) | 17.1 µM (inactive) | 18 µM (inactive) | 12.9 µM (inactive) | – | 28.2 µM (inactive)
14 | CC1(O)CCC2(C)C(=O)C1(C)CCC21OCCO1 (configuration not stated) | – | > 100 µM (inactive) | > 100 µM (inactive) | > 100 µM (inactive) | > 100 µM (inactive) | > 100 µM (inactive) | > 100 µM (inactive) | > 100 µM (inactive) | > 100 µM (inactive) | > 100 µM (inactive) | – | > 100 µM (inactive) | > 100 µM (inactive)
15 | O=[N+]([O-])c1ccc(C[P+]2(c3ccccc3)CCCCC2)cc1.[O-][Cl+3]([O-])([O-])[O-] | > 100 µM (inactive) | > 100 µM (inactive) | > 100 µM (inactive) | > 100 µM (inactive) | > 100 µM (inactive) | > 100 µM (inactive) | > 100 µM (inactive) | > 100 µM (inactive) | > 100 µM (inactive) | > 100 µM (inactive) | – | > 100 µM (inactive) | > 100 µM (inactive)
16 | COc1cc(C2c3cc4c(cc3[C@@H](N(C)c3ccc(N(C)C)cc3)C3COC(=O)C23)OCO4)cc(OC)c1O (some centres not stated) | 0.437 µM (active) | 0.402 µM (active) | 0.964 µM (active) | 0.213 µM (active) | 0.434 µM (active) | 0.329 µM (active) | 0.362 µM (active) | – | 0.305 µM (active) | 0.785 µM (active) | 9.57 µM (inactive) | 0.292 µM (active) | 0.479 µM (active)
17 | CCOC(=O)C(Cc1ccc(N=NN(C)C)cc1)NC(=O)CC1c2ccccc2-c2ccccc21 (configuration not stated) | 85.3 µM (inactive) | > 100 µM (inactive) | > 100 µM (inactive) | 36.1 µM (inactive) | 38.3 µM (inactive) | 75.2 µM (inactive) | > 100 µM (inactive) | – | > 100 µM (inactive) | > 100 µM (inactive) | > 100 µM (inactive) | > 100 µM (inactive) | 92.7 µM (inactive)
